{"source": "patent US20220016196A1", "about": "“Aloe Based Compositions Comprising Polysaccharides and Polyphenols for Regulation of Homeostasis of Immunity” (Unigen, Inc., priority 2020, published 2022)", "test_system": "LPS-induced septic mice", "test": "LPS induced sepsis model, survival/mortality rate", "type": "in vivo, mouse", "details": "for # of Death after LPS: cumulative; for Number of deceased animals post LPS: per interval", "procedure": "CD-1 mice were purchased from a USDA approved vendor. Male CD-1 mice at 8 weeks old were purchased form Charles River Laboratories, Inc. (Wilmington, Mass.). Animals were acclimated upon arrival and used for the study at the age of 11 weeks. At the time of the study animals average weigh 33.6±2.4 grams. They were housed in a temperature-controlled room (71-72° F.) on a 12-hour light-dark cycle and provided with feed and water ad libitum.\nThis model used a survival/mortality rate of animals as the end point measurement (Wang et al., 1999). LPS, an exogenous assault trigger, is an integral component of the outer membrane of gram-negative bacteria and a major contributing factor in the initiation of a generalized inflammatory process that could lead to endotoxic shock. It is a state mediated principally by macrophages/monocytes attributed to excessive production of several early phase cytokines such as TNF, IL-1, IL-6 and gamma interferon as well as a late stage mediator HMGB1. Following median lethal dose of LPS (25 mg/kg) administration dissolved in Phosphate buffered saline (PBS; Lifeline, Lot #07641), animals develop endotoxemia and HMGB1 would be detected in the serum at 8 hours and reach to a peak and plateau levels from 16 to 32 hours after LPS. If untreated, mice would start to die within 24 hours. In the current study, we monitored the mice for 4 days after LPS injection. The survival/mortality rate compared LPS +Sodium butyrate (SB; Aldrich, St. Louis, Mo.; lot #MKCG7272), LPS+Vehicle (0.5% CMC; Spectrum, New Brunswick, N.J.; lot #1IJ0127) and LPS+UP360 (Aloe based composition comprising polysaccharides and polyphenols made in Example 9). The following groups were included in the study:\nIn this model, mice were pretreated with UP360 illustrated in the Example 9 for a week (7 days) before lethal dose intraperitoneal injection of LPS (E. coli, 055:B5; Sigma, St. Louis, Mo.; Lot #081275) at 25 mg/kg with a 10 mL/kg PBS volume. Animals were observed hourly. Given the fact that Sodium butyrate improved LPS-induced injury in mice through suppression of HMGB1 release, we chose this compound as a positive control for our study (Li et al., 2018).\nMale CD-1 mice (n=13) were treated with Aloe, Poria, and Rosmarinic acid (RA) utilized for making UP360 in Example 9 at 150 mg/kg, 300 mg/kg and 50 mg/kg, respectively, for 7 days before LPS injection. On the 8th day, mice were injected with 25 mg/kg LPS dissolved in PBS at 10 mL/kg intraperitoneally. Mice in the UP360-treated group received a daily dose of UP360 at 500 mg/kg. All mice continued to receive the respective treatment daily for the duration of the study. Following median lethal dose of LPS (25 mg/kg) i.p. administration, animals are expected to develop sepsis within a few hours. If untreated, mice would start to die within 24 hours. Animals were observed hourly. In the current study, we monitored the mice for 6 days after LPS injection. The survival rate compared LPS+Sodium butyrate (SB), LPS+Vehicle (0.5% CMC), LPS+UP360, LPS+Aloe, LPS+Poria and LPS+Rosmarinic acid. Normal control animals received only PBS intraperitoneally and gavaged only with the carrier vehicle 0.5% CMC. Given the fact that Sodium butyrate (SB) improved LPS-induced injury in mice through suppression of HMGB1 release, we chose this compound as a positive control for our study (Li et al., 2018).\nThe survival rate and mortality rate of the contemplated Aloe-based compositions, including UP360, comprising and, in some embodiments, consisting of polysaccharides and polyphenols was compared with those dosages of individual extracts as they appear in the formulation to find out potential additive, antagonist or synergistic effects in combination using Colby's equation (Colby, 1967). For the blending of these plant extracts to have unexpected synergy, the observed inhibition needs to be greater than the calculated value.", "key": {"[1]": {"details": "n=13 study, doses as E61, 24 hr"}, "[2]": {"details": "n=13 study, doses as E61, 36 hr"}, "[3]": {"details": "n=13 study, doses as E61, 48 hr"}, "[4]": {"details": "n=13 study, doses as E61, 60 hr"}, "[5]": {"details": "n=13 study, doses as E61, 72 hr"}, "[6]": {"details": "n=13 study, doses as E61, 96 hr"}, "[7]": {"details": "n=13 study, doses as E61, 120 hr"}, "[8]": {"details": "n=13 study, doses as E61, 144 hr"}}, "data": [{"smiles": "CCCC(=O)[O-].[Na+]", "note": "[Sodium Butyrate]", "values": [{"measurement": "# of Death after LPS", "setting": "CD-1 mice n=8, LPS 25 mg/kg i.p., 500 mg/kg oral from 7 days before, 24 hr", "value": 2}, {"measurement": "Number of deceased animals post LPS", "setting": "CD-1 mice n=13, LPS 25 mg/kg i.p., oral UP360/SB 500, Aloe 150, Poria 300, RA 50 mg/kg, 24 hpi", "value": 2}, {"measurement": "MR (%)", "setting": "mortality rate, n=13 study, doses as E49, end of study", "value": 69.2, "unit": "%"}, {"measurement": "# of Death after LPS, Total", "setting": "n=8, LPS 25 mg/kg i.p., 500 mg/kg oral", "value": 4}, {"measurement": "survival rate", "setting": "n=8, LPS 25 mg/kg i.p., 500 mg/kg oral, 24 hours after LPS", "value": 75, "unit": "%"}, {"measurement": "survival rate", "setting": "n=8, LPS 25 mg/kg i.p., 500 mg/kg oral, 34 hours after LPS", "value": 62.5, "unit": "%"}, {"measurement": "survival rate", "setting": "n=8, LPS 25 mg/kg i.p., 500 mg/kg oral, 48 hours after LPS", "value": "half of the animals were deceased"}, {"measurement": "survival rate", "setting": "n=8, LPS 25 mg/kg i.p., 500 mg/kg oral, 72 hours after LPS", "value": 50, "unit": "%"}, {"measurement": "# of Death after LPS", "setting": "n=8, LPS 25 mg/kg i.p., 500 mg/kg oral, 32 hr", "value": 3}, {"measurement": "# of Death after LPS", "setting": "n=8, LPS 25 mg/kg i.p., 500 mg/kg oral, 34 hr", "value": 3}, {"measurement": "# of Death after LPS", "setting": "n=8, LPS 25 mg/kg i.p., 500 mg/kg oral, 48 hr", "value": 4}, {"measurement": "# of Death after LPS", "setting": "n=8, LPS 25 mg/kg i.p., 500 mg/kg oral, 58 hr", "value": 4}, {"measurement": "# of Death after LPS", "setting": "n=8, LPS 25 mg/kg i.p., 500 mg/kg oral, 72 hr", "value": 4}, {"measurement": "# of Death after LPS", "setting": "n=8, LPS 25 mg/kg i.p., 500 mg/kg oral, 82 hr", "value": 4}, {"measurement": "Survival rate (%)", "setting": "n=8, LPS 25 mg/kg i.p., 500 mg/kg oral, final (82 hours, same at 96 and 120 hours)", "value": 50, "unit": "%"}, {"measurement": "Survival rate (%)", "setting": "n=13, LPS 25 mg/kg i.p., UP360/Sodium Butyrate 500, Aloe 150, Poria 300, RA 50 mg/kg, 0 hr", "value": 100, "unit": "%"}, {"measurement": "Survived", "setting": "n=13 study, doses as E49, at 144 hpi", "value": 4}, {"measurement": "Number of deceased animals post LPS", "setting": "n=13 study, doses as E49, 36 hpi", "value": 4}, {"measurement": "Number of deceased animals post LPS", "setting": "n=13 study, doses as E49, 48 hpi", "value": 1}, {"measurement": "Number of deceased animals post LPS", "setting": "n=13 study, doses as E49, 60 hpi", "value": 1}, {"measurement": "Number of deceased animals post LPS", "setting": "n=13 study, doses as E49, 72 hpi", "value": 0}, {"measurement": "Number of deceased animals post LPS", "setting": "n=13 study, doses as E49, 96 hpi", "value": 1}, {"measurement": "Number of deceased animals post LPS", "setting": "n=13 study, doses as E49, 120 hpi", "value": 0}, {"measurement": "Number of deceased animals post LPS", "setting": "n=13 study, doses as E49, 144 hpi", "value": 0}, {"measurement": "Deceased", "setting": "n=13 study, doses as E49, total over 144 hpi", "value": 9}, {"measurement": "Mortality rate (%)", "setting": "n=13 study, doses as E61, 0 hr", "value": 0.0, "unit": "%"}, {"measurement": "Mortality rate (%)", "setting": "[1]", "value": 15.4, "unit": "%"}, {"measurement": "Survival rate (%)", "setting": "[1]", "value": 84.6, "unit": "%"}, {"measurement": "Mortality rate (%)", "setting": "[2]", "value": 46.2, "unit": "%"}, {"measurement": "Survival rate (%)", "setting": "[2]", "value": 53.8, "unit": "%"}, {"measurement": "Mortality rate (%)", "setting": "[3]", "value": 53.8, "unit": "%"}, {"measurement": "Survival rate (%)", "setting": "[3]", "value": 46.2, "unit": "%"}, {"measurement": "Mortality rate (%)", "setting": "[4]", "value": 61.5, "unit": "%"}, {"measurement": "Survival rate (%)", "setting": "[4]", "value": 38.5, "unit": "%"}, {"measurement": "Mortality rate (%)", "setting": "[5]", "value": 61.5, "unit": "%"}, {"measurement": "Survival rate (%)", "setting": "[5]", "value": 38.5, "unit": "%"}, {"measurement": "Mortality rate (%)", "setting": "[6]", "value": 69.2, "unit": "%"}, {"measurement": "Survival rate (%)", "setting": "[6]", "value": 30.8, "unit": "%"}, {"measurement": "Mortality rate (%)", "setting": "[7]", "value": 69.2, "unit": "%"}, {"measurement": "Survival rate (%)", "setting": "[7]", "value": 30.8, "unit": "%"}, {"measurement": "Mortality rate (%)", "setting": "[8]", "value": 69.2, "unit": "%"}, {"measurement": "Survival rate (%)", "setting": "[8]", "value": 30.8, "unit": "%"}, {"measurement": "SR (%)", "setting": "survival rate, n=13 study, doses as E49, end of study", "value": 30.8, "unit": "%"}]}]}
